Experimental findings from patent US5081121A, “4(1H)-quinolone derivatives” (priority 1988, dated 1992) are described below.

One experiment relates to right atrial muscle. Description: Test Method 1: enhancing rate of the pulsation of the right atrial muscle extirpated from a guinea pig. Format: cell-based. Particulars: minus values: pulsation is decreased. The procedure:
(§1) The drug according to the present invention was evaluated with reference to the physiological activities by means of a method using an atrial muscle extirpated from a guinea pig.
(§2) Male guinea pigs having a body weight of 300-500 g were made swooned by striking his head and were bleeded to death. The heart was extirpated and the right and left atrial muscles were cut off. The tops of each atrial muscle were fixed with cerrefines. The muscle was suspended into an organ-bath in which a Krebs-Henseleit solution (at 32° C.) was filled, and a 95% O2 -5% CO2 gas was flown through the bath. The left atrial muscle was stimulated electrically at a frequency of 1 Hz to stabilize the contracting force of the left atrial muscle. Then, the compounds according to the present invention represented by the general formulae were added to the organ-bath. As for the right atrial muscle, after the pulsation was stabilized, the compounds according to the present invention were added in the organ-bath in the same manner as described above.
(§3) The compounds according to the present invention represented by the aforementioned general formulae enhanced the left atrial muscle contracting force dependent on their concentrations. The drug concentrations for enhancing the left atrial muscle contracting force to the levels of 20%, 50% and 100%, respectively are listed in Table 2. EC20, EC50 and EC100 indicate the molar concentration for enhancing the left atrial muscle contracting force to the levels of 20%, 50% and 100%, respectively. The enhancing rates of the pulsation of the right atrial muscle are also listed within parentheses. The minus values in parentheses indicate that the pulsation of the right atrial muscle is decreased.
(§4) As a control drug, theophylline ([…].

A further experiment deals with left atrial muscle. Description: Test Method 1: enhancement of contracting force of left atrial muscle extirpated from a guinea pig (electrically stimulated at 1 Hz). The experiment is classed as cell-based. Particulars: Cavia porcellus, Krebs-Henseleit solution 32° C.; for EC20: read-out: EC20 (molar concentration for enhancing the left atrial muscle contracting force to the level of 20%); for EC50: read-out: EC50 (molar concentration for enhancing the left atrial muscle contracting force to the level of 50%); for EC100: read-out: EC100 (molar concentration for enhancing the left atrial muscle contracting force to the level of 100%). The procedure: as §1, §2, §3, §4

For `CCOC(=O)c1cn(CC)c2cc(OCC)c(OC)cc2c1=O` [Compound 34, 7-ethoxy-3-ethoxycarbonyl-1-ethyl-6-methoxy-4(1H)-quinolone], in the experiment with right atrial muscle, the “enhancing rate of the pulsation of the right atrial muscle (in parentheses under EC20)” value (“enhancing rate … (in parentheses under EC20)” below) is -3.2% and the “enhancing rate of the pulsation of the right atrial muscle (in parentheses under EC50)” value (from here on “enhancing rate … (in parentheses under EC50)”) is -8.5%. Besides, in the experiment with left atrial muscle, the EC20 was 6.46 µM and the EC50 is 100 µM.
In the case of `CCn1ccc(=O)c2cc(C)ccc21` [Compound 59, 1-ethyl-6-methyl-4(1H)-quinolone], in the experiment on right atrial muscle, the “enhancing rate … (in parentheses under EC20)” value is reported as -2.0%, the “enhancing rate of the pulsation of the right atrial muscle (in parentheses under EC100)” value (from here on “enhancing rate … (in parentheses under EC100)”) was -3.0% and the “enhancing rate … (in parentheses under EC50)” value is -2.7%. Further, in the experiment with left atrial muscle, the EC20 turned out to be 12.3 µM, the EC50 was 68.4 µM and the EC100 came out at 279 µM.
With `CCOC(=O)c1cn(CC)c2c(OC)cc([S+](C)[O-])cc2c1=O` (stereo not drawn) [Compound 39, 3-ethoxycarbonyl-1-ethyl-8-methoxy-6-methylsulfinyl-4(1H)-quinolone], in the experiment with right atrial muscle, the “enhancing rate … (in parentheses under EC20)” value is -7.7% and the “enhancing rate … (in parentheses under EC50)” value is -12.1%. Also, in the experiment on left atrial muscle, the EC20 stood at 13.5 µM and the EC50 turned out to be 67.6 µM.
Turning to `CCOC(=O)c1c[nH]c2c(OC)cccc2c1=O` [Compound 35, 3-ethoxycarbonyl-8-methoxy-4(1H)-quinolone], in the experiment with right atrial muscle, the “enhancing rate … (in parentheses under EC20)” value is -1.2%, the “enhancing rate … (in parentheses under EC100)” value was -3.7% and the “enhancing rate … (in parentheses under EC50)” value is on record as -2.0%. In the experiment on left atrial muscle, the EC20 amounted to 26 µM, the EC50 stood at 80 µM and the EC100 is 260 µM.
For `CCOc1cc2c(=O)ccn(CC)c2cc1OC` [Compound 49, 6-ethoxy-1-ethyl-7-methoxy-4(1H)-quinolone], in the experiment with right atrial muscle, the “enhancing rate … (in parentheses under EC20)” value is listed as -2.5%, the “enhancing rate … (in parentheses under EC100)” value is listed as 10.2% and the “enhancing rate … (in parentheses under EC50)” value was -1.0%. Moreover, in the experiment with left atrial muscle, the EC20 worked out at 16.8 µM, the EC50 amounted to 62.4 µM and the EC100 turned out to be 229 µM.
For the molecule `COc1ccc2[nH]ccc(=O)c2c1O` [Compound 1, 5-hydroxy-6-methoxy-4(1H)-quinolone], in the experiment on right atrial muscle, the “enhancing rate … (in parentheses under EC20)” value came out at 1.2%, the “enhancing rate … (in parentheses under EC100)” value turned out to be 6.8% and the “enhancing rate … (in parentheses under EC50)” value is 3.6%. For the same molecule, in the experiment with left atrial muscle, the EC20 was found to be 199 µM, the EC50 was 398 µM and the EC100 was determined as 708 µM.
For `CCOc1cc2c(=O)c(C(=O)O)cn(CC)c2cc1OC` [Compound 86, 3-carboxyl-6-ethoxy-1-ethyl-7-methoxy-4(1H)-quinolone], in the experiment on right atrial muscle, the “enhancing rate … (in parentheses under EC20)” value stood at 1.5% and the “enhancing rate … (in parentheses under EC50)” value was 8.5%. In the experiment with left atrial muscle, the EC20 was 30 µM and the EC50 is 125 µM.
As to `O=c1cc(-c2cccs2)[nH]c2ccccc12` [Compound 100, 2-(2-thienyl)-4(1H)-quinolone], in the experiment with right atrial muscle, the “enhancing rate … (in parentheses under EC20)” value amounted to 1.8% and the “enhancing rate … (in parentheses under EC50)” value turned out to be 3.5%. Further, in the experiment with left atrial muscle, the EC20 turned out to be 5.43 µM and the EC50 turned out to be 18.8 µM.
In the case of `CCN(CC)c1cc(C)c2[nH]ccc(=O)c2c1` [Compound 9, 6-diethylamino-8-methyl-4(1H)-quinolone], in the experiment with right atrial muscle, the “enhancing rate … (in parentheses under EC20)” value is given as 8.2%, the “enhancing rate … (in parentheses under EC100)” value came out at 18.0% and the “enhancing rate … (in parentheses under EC50)” value was 15.3%. In addition, in the experiment with left atrial muscle, the EC20 worked out at 40.7 µM, the EC50 is 87.1 µM and the EC100 was 299 µM.
Take `COc1ccc(Cn2c(C3CC3)cc(=O)c3cc(OC)c(OC)cc32)cc1` [Compound 104, 2-cyclopropyl-6,7-dimethoxy-1-(4-methoxybenzyl)-4(1H)-quinolone]: in the experiment on right atrial muscle, the “enhancing rate … (in parentheses under EC20)” value is given as -3.5% and the “enhancing rate … (in parentheses under EC50)” value is -0.5%. Moreover, in the experiment with left atrial muscle, the EC20 stood at 11.5 µM and the EC50 was 51.9 µM.
Consider `CCn1ccc(=O)c2cc(/C=C/c3cc(OC)ccc3OC)ccc21` [Compound 111, 6-[2-trans-(2,5-dimethoxyphenyl)vinyl]-1-ethyl-4(1H)-quinolone], for which, in the experiment with right atrial muscle, the “enhancing rate … (in parentheses under EC20)” value is -9.8% and the “enhancing rate … (in parentheses under EC50)” value is -27.0%. In the experiment with left atrial muscle, the EC20 was 18.2 µM and the EC50 came out at 97.7 µM.
With `CCOc1cc2c(cc1OC)c(=O)ccn2CC` [Compound 58, 7-ethoxy-1-ethyl-6-methoxy-4(1H)-quinolone], in the experiment on right atrial muscle, the “enhancing rate … (in parentheses under EC20)” value stood at 3.0% and the “enhancing rate … (in parentheses under EC50)” value worked out at 13.5%. Further, in the experiment with left atrial muscle, the EC20 was determined as 8.13 µM and the EC50 is 47.3 µM.
In the case of `CCOc1cc2c(cc1OC)c(=O)cc(-c1cccs1)n2CC` [Compound 102, 7-ethoxy-1-ethyl-6-methoxy-2-(2-thienyl)-4(1H)-quinolone], in the experiment with right atrial muscle, the “enhancing rate … (in parentheses under EC20)” value is -0.2% and the “enhancing rate … (in parentheses under EC50)” value is -5.2%. In the experiment on left atrial muscle, the EC20 is 2.51 µM and the EC50 came to 40.3 µM.
As to `CCOC(=O)c1cn(CC)c2c(OCC)cc(OC)cc2c1=O` [Compound 78, 8-ethoxy-3-ethoxycarbonyl-1-ethyl-6-methoxy-4(1H)-quinolone], in the experiment with right atrial muscle, the “enhancing rate … (in parentheses under EC20)” value is on record as -6.2% and the “enhancing rate … (in parentheses under EC50)” value is -25.0%. Also, in the experiment with left atrial muscle, the EC20 came out at 8.41 µM and the EC50 was found to be 75 µM.
Turning to `CCOc1cc2c(cc1OC)c(=O)cc(-c1cccnc1)n2CC` [Compound 114, 7-ethoxy-1-ethyl-6-methoxy-2-(3-pyridyl)-4(1H)-quinolone], in the experiment on right atrial muscle, the “enhancing rate … (in parentheses under EC20)” value is given as -1.8%, the “enhancing rate … (in parentheses under EC100)” value is on record as -1.3% and the “enhancing rate … (in parentheses under EC50)” value is -4.0%. Besides, in the experiment with left atrial muscle, the EC20 came to 6.46 µM, the EC50 is 53.1 µM and the EC100 turned out to be 1000 µM.
On to `COc1ccc(-c2ccccc2)c2c(=O)c(C(=O)O)c[nH]c12` [Compound 91, 3-carboxyl-8-methoxy-5-phenyl-4(1H)-quinolone], for which, in the experiment with right atrial muscle, the “enhancing rate … (in parentheses under EC20)” value is on record as 2.3% and the “enhancing rate … (in parentheses under EC50)” value stood at 16.0%. Further, in the experiment on left atrial muscle, the EC20 amounted to 13.3 µM, the EC50 amounted to 119 µM and the EC100 was determined as 750 µM.
As to `O=C(c1ccccc1)c1cc(Cl)cc2c(=O)cc[nH]c12` [Compound 18, 8-benzoyl-6-chloro-4(1H)-quinolone], in the experiment with right atrial muscle, the “enhancing rate … (in parentheses under EC20)” value is given as 0.2%, the “enhancing rate … (in parentheses under EC100)” value worked out at 12.2% and the “enhancing rate … (in parentheses under EC50)” value amounted to 9.2%. Besides, in the experiment with left atrial muscle, the EC20 is 10 µM, the EC50 was 39.3 µM and the EC100 turned out to be 115 µM.
As to `COC(=O)c1cn(C)c2cc(OC)c(OC)cc2c1=O` [Compound 32, 6,7-dimethoxy-3-methoxycarbonyl-1-methyl-4(1H)-quinolone], in the experiment on right atrial muscle, the “enhancing rate … (in parentheses under EC20)” value came to 0.1%, the “enhancing rate … (in parentheses under EC100)” value amounted to 0.4% and the “enhancing rate … (in parentheses under EC50)” value worked out at 0.3%. Besides, in the experiment with left atrial muscle, the EC20 worked out at 40.7 µM, the EC50 turned out to be 85.1 µM and the EC100 is 282 µM.
For the molecule `COc1ccc(OC)c(/C=C/c2ccc3[nH]ccc(=O)c3c2)c1` [Compound 46, 6-[2-trans-(2,5-dimethoxyphenyl)vinyl]-4(1H)-quinolone], in the experiment on right atrial muscle, the “enhancing rate … (in parentheses under EC20)” value is on record as -1.0% and the “enhancing rate … (in parentheses under EC50)” value was found to be 3.5%. In addition, in the experiment on left atrial muscle, the EC20 turned out to be 45.7 µM and the EC50 turned out to be 162 µM.
As for `C=CCn1c(-c2cccs2)cc(=O)c2cc(OC)c(OCC)cc21` [Compound 116, 1-allyl-7-ethoxy-6-methoxy-2-(2-thienyl)-4(1H)-quinolone], the “enhancing rate … (in parentheses under EC20)” value in the experiment with right atrial muscle is given as -10.0%. Also, in the experiment on left atrial muscle, the EC20 is 15.3 µM and the EC50 turned out to be 60.3 µM.
For the molecule `COc1cc(OCc2ccccc2)cc2c(=O)cc[nH]c12` [Compound 26, 6-benzyloxy-8-methoxy-4(1H)-quinolone], in the experiment on right atrial muscle, the “enhancing rate … (in parentheses under EC20)” value was determined as 0.1%, the “enhancing rate … (in parentheses under EC100)” value is recorded as 8.7% and the “enhancing rate … (in parentheses under EC50)” value is on record as 5.5%. Also, in the experiment on left atrial muscle, the EC20 was found to be 6.38 µM, the EC50 amounted to 63 µM and the EC100 turned out to be 305 µM.
